# Measurements taken from patent US6461638B1, “Laxative compositions and method for making same” (Techni-Pharma, priority 1996, dated 2002).
# Assay: Effervescence measure by release of CO2, Bernard's calcimeter, water heated to 37° C.
# Assay type: physicochemical
# Settings: acid compound mixed with Na bicarbonate
# Source text: Effervescence Measure by Release of CO2
# Working of the Bernard's calcimeter.
# The assay consists in verifying the working of the equipment of the Bernard's calcimeter.
# A little modification has been made on the rubber stopper of the lateral neck by adding a tap. This addition is necessary until at time 0, the experiment begins with an inner pressure equal to the atmospheric pressure.
# Introduce a saturated sodium chloride solution in the flask and the graduated tube
# Adjust the level of the graduated tube before starting the experiment
# Lay on the magnetic heating stirrer the flask containing 100 ml of distilled water at 37° C.
# Fill up the flask with a stopper previously fixed at the end of the releasing tube of CO2
# Introduce the suppository in the flask without contact occurring between the suppository and the water
# Verify again the sodium chloride level in the graduated tube before turning off the tap of the side stopper
# Turn on the stirrer and drop the suppository, without forget to unlock the chronometer
# Thus, it is necessary to heat the water until 37° C. Thus a magnetic heating stirrer has been used.
structure (smiles),measurement,value
O=C1CCC(=O)N1 [succinimide],CO2 release (in words),only induces a reduced and delayed release
